From patent US8796313B2, “Substituted dihydroisoindolones as allosteric modulators of glucokinase” (Janssen Pharmaceutica N.V., priority 2005, dated 2014)

Legend:
[1] = target: T1, human liver Glucokinase (GK) (Homo sapiens, UniProt P35557); test: Glucokinase enzyme assay, liver GK; assay type: biochemical; conditions: for EC50: concentration that produces 50% activation above vehicle control; for activation at 50 µM: increase in GK activity above vehicle control, compound 50 μM, 12 mM glucose; for EC100%: concentration that produces 100% activation above vehicle control
T1 construct: His6; made in house; host or cells: Escherichia coli
T1 sequence (P35557 1-466 isoform P35557-2): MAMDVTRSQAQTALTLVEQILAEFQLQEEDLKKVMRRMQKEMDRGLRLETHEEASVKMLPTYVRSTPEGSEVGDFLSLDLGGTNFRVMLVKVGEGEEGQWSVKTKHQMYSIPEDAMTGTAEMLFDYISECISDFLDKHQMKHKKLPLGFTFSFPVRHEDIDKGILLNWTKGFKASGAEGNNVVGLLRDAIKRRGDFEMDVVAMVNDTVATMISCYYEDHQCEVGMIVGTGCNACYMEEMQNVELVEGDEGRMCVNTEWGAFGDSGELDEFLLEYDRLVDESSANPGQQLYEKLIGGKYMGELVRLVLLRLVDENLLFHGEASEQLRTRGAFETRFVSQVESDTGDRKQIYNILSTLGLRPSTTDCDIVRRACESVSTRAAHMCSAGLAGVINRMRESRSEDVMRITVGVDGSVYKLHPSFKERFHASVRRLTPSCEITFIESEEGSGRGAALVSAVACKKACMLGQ
Source text: (§1) An enzymatic Glucokinase (GK) assay using purified recombinant human liver/pancreas enzyme was used to evaluate the effects of potential small molecule modulators.
(§2) In this assay, GK catalyzes glucose phosphorylation in the presence of ATP. The product of this reaction, glucose-6-phosphate, was then oxidized by an excess of glucose-6-phosphate dehydrogenase to produce gluconate-6-phosphate with concomitant reduction of nicotinamide adenine dinucleotide (NAD). […] Human GK (Liver/Pancreas) was expressed in Escherichia coli as a (His) 6-tagged fusion protein and was purified by metal chelate affinity chromatography. The assay was performed in a final incubation volume of 80 μl in a 96-well clear low UV absorption plates. The incubation mixture consisted of 25 mM HEPES, 2 mM MgSO4, 1 mM dithiothreotol (DTT), 1 mg/mL bovine serum albumin (BSA), 1 mM ATP, 1 mM NAD, and 12 mM glucose, 10 units per mL glucose-6-phosphate dehydrogenase, and +/−300 ng per mL GK. For determination of the affinity (Km) and Vmax, different concentrations of glucose ranging from 0.5 mM to 40 mM were used in the assay; see Grimsby, J., Sarabu, R.; Grippo, J. F.; et. al. Science 2003, 301, 370-373. Production of reduced NAD (Nicotinamide Adenine Dinucleotide) was measured as changes in absorption at 340 nm in 96-well plate reader (Envision model #2101 Multilabel Plate reader). % Activation @ 50 μM was calculated as the percentage increase in GK activity above the vehicle control with the effective concentration of the compound being 50 μM. EC50% (μM) was calculated as the effective concentration of the compound that produces 50% activation above the vehicle control, and EC100% (μM) was calculated as the effective concentration of the compound that produces 100% activation above the vehicle control.

[2] = target: T2, human pancreas Glucokinase (GK) (Homo sapiens, UniProt P35557); test: Glucokinase enzyme assay, pancreas GK; assay type: biochemical
T2 construct: His6; made in house; host or cells: Escherichia coli
T2 sequence (P35557 1-465): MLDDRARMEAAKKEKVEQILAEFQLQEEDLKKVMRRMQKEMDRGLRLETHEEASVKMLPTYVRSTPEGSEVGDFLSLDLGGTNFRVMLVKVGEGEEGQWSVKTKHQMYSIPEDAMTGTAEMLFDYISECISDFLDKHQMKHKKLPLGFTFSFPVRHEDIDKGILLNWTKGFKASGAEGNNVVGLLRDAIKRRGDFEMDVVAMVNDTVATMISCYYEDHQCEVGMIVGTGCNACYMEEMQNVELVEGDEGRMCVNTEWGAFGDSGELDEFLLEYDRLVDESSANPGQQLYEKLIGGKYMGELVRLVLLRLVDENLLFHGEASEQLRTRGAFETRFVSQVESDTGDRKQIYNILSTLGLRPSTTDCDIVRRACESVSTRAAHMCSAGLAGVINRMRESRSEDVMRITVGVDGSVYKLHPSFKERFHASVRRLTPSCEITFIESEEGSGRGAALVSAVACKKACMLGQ
Source text: as §1
as §2, with “Production of reduced NAD (Nicotinamide Adenine Dinucleotide) was measured as changes in absorption at 340 nm in 96-well plate reader (Envision model #2101 Multilabel Plate reader). % Activation @ 50 μM was calculated as the percentage increase in GK activity above the vehicle control with the effective concentration of the compound being 50 μM.” left out

| EC50 [1] | activation at 50 µM [1] | EC100% [1] | EC50 ([2]; concentration that produces 50% activation above vehicle control) | EC100% ([2]; concentration that produces 100% activation above vehicle control) | activation at 50 µM ([2]; increase in GK activity above vehicle control, compound 50 μM, 12 mM glucose) | SMILES |
| --- | --- | --- | --- | --- | --- | --- |
| 15000 nM | 46% |  |  |  |  | O=C(CCC1c2ccccc2C(=O)N1Cc1ccccc1)Nc1nccs1 (stereo not shown) [Compound 1, 3-(2-Benzyl-3-oxo-2,3-dihydro-1H-isoindol-1-yl)-N-thiazol-2-yl-propionamide] |
| 1290 nM |  | 8.39 µM |  |  |  | COC(=O)c1ccc(NC(=O)CCC2c3ccccc3C(=O)N2Cc2ccccc2)nc1 (stereo not shown) [Compound 2, 6-[3-(2-Benzyl-3-oxo-2,3-dihydro-1H-isoindol-1-yl)-propionylamino]-nicotinic acid methyl ester] |
| 2520 nM |  | 8.78 µM |  |  |  | O=C(CCC1c2ccccc2C(=O)N1Cc1ccccc1)Nc1ccccn1 (stereo not shown) [Compound 3, 3-(2-Benzyl-3-oxo-2,3-dihydro-1H-isoindol-1-yl)-N-pyridin-2-yl-propionamide] |
|  | 15% |  |  |  |  | O=C(NCCC1c2ccccc2C(=O)N1Cc1ccccc1)Nc1nccs1 (stereo not shown) [Compound 4, 1-[2-(2-Benzyl-3-oxo-2,3-dihydro-1H-isoindol-1-yl)-ethyl]-3-thiazol-2-yl-urea] |
| 1900 nM | 138% | 8 µM | 2900 nM | 18 µM | 306% | O=C(CCC1c2ccccc2C(=O)N1Cc1ccccc1)Nc1ccc(C(=O)O)cn1 (stereo not shown) [Compound 5, 6-[3-(2-Benzyl-3-oxo-2,3-dihydro-1H-isoindol-1-yl)-propionylamino]-nicotinic acid] |
